Where two headings read alike, the source gives them in different places.
Legend:
[1] = system: Rheumatoid arthritis patients; experiment: Treatment outcome (effectiveness, clinical course) of treatment methods (Example 2); type: in vivo, human
Experimental: (§1) The patients were treated with the selected treatment methods for at least five months and the post-treatment biomarker levels and VECTRA DA Score were determined by VECTRA® DA test along with CRP level and ESR. The change is VECTRA DA Score, CRP level and ESR was determined to determine the change in disease activity and effectiveness of the selected treatment method.

[2] = system: Rheumatoid arthritis patients; experiment: Change in VECTRA DA Score after treatment (Example 2); type: in vivo, human
Source text: VECTRA® DA test is a multi-biomarker disease activity (MBDA) blood test sold by Crescendo Bioscience. The test provides a quantitative assessment of rheumatoid arthritis disease activity in patients by using twelve protein biomarkers—Vascular Cell Adhesion Molecule 1 (VCAM-1), Epidermal Growth Factor (EGF), Vascular Endothelial Growth Factor A (VEGF-A), Interleukin-6 (IL-6), Tumor Necrosis Factor Receptor Type 1 (TNFR1), Matrix Metalloproteinase-1 (MMP-1), Matrix Metalloproteinase-3 (MMP-3), YKL-40, Leptin, Resistin, Serum Amyloid A (SAA), and C-Reactive Protein (CRP). The twelve biomarkers in VECTRA® DA test are relevant to key aspects of the pathophysiology of RA. Li et al., Curr. Med. Res. & Opin. 29(1): 85-92 (2013). The test measures the concentrations of the biomarkers and provides the concentrations and percentile (RA percentile) value for each biomarker. […]
as §1

[3] = system: Rheumatoid arthritis patients; type: in vivo, human
Source text: A treatment method administered to a patient may be a combination of one or more treatment methods.

[4] = system: MMP-1; details: literature 1990-2012, ACR abstracts 2006-2013; cited from earlier work
[5] = system: Rheumatoid arthritis patients; experiment: Change in VECTRA DA Score after treatment, longer duration (Example 3); type: in vivo, human
Experimental: Sixteen rheumatoid arthritis patients were selected for treatment by treatment methods that were selected using the algorithm disclosed herein. Some patients were the same as the patients discussed under Example 2. Example 3, however, tracks patients' responses to treatment for a longer duration and uses VECTRA DA Score to determine effectiveness of the treatment.
VECTRA® DA test was conducted for each patient to determine serum levels of the all the biomarkers and VECTRA DA Score in each patient before treatment. The collection of patients closely resembles the random patient population available nationwide as shown by a comparison of the distribution of VECTRA DA Scores in FIG. 6, as noted under Example 2.
The patients were treated with the selected treatment methods and the post-treatment biomarker levels and VECTRA DA Score were determined by VECTRA® DA test. The change is VECTRA DA Score was determined to determine the change in disease activity and effectiveness of the selected treatment method.
The treatment method (one method or a combination of methods) was determined to be effective when the post-treatment disease activity was lower than the pre-treatment disease activity in the patient: when VECTRA DA Score was lower than the pre-treatment VECTRA DA Score. Specifically, the treatment method was determined to be effective when the post-treatment disease activity was at least 20% lower than the pre-treatment disease activity, or when the VECTRA DA Score is decreased to a lower disease activity level after the treatment (i.e., from high to moderate, or high to low, or moderate to low).

[6] = system: TNFR1; design: key: Y: biomarkers that are known to be positively affected by a treatment method (i.e., biomarkers that are known to have a favorable response to a treatment method); N: biomarkers that are not known to be positively affected by a treatment method (i.e., biomarkers that are known to have an unfavorable response to a treatment method); biomarkers that are known to be positively affected by a ORENCIA, the brand name of Atabacept; details: literature 1990-2012, ACR abstracts 2006-2013; cited from earlier work
[7] = system: VCAM-1; details: literature 1990-2012, ACR abstracts 2006-2013; cited from earlier work
[8] = system: VEGF-A; details: literature 1990-2012, ACR abstracts 2006-2013; cited from earlier work
[9] = system: IL-6; details: literature 1990-2012, ACR abstracts 2006-2013; cited from earlier work
[10] = system: SAA; details: literature 1990-2012, ACR abstracts 2006-2013; cited from earlier work
[11] = system: YKL-40; details: literature 1990-2012, ACR abstracts 2006-2013; cited from earlier work
[12] = system: Resistin; details: literature 1990-2012, ACR abstracts 2006-2013; cited from earlier work
[13] = system: Rheumatoid arthritis patients; experiment: VECTRA DA test: serum levels of biomarkers, % elevation over control (InFoRM study); type: in vivo, human
Source text: VECTRA® DA test is a multi-biomarker disease activity (MBDA) blood test sold by Crescendo Bioscience. The test provides a quantitative assessment of rheumatoid arthritis disease activity in patients by using twelve protein biomarkers—Vascular Cell Adhesion Molecule 1 (VCAM-1), Epidermal Growth Factor (EGF), Vascular Endothelial Growth Factor A (VEGF-A), Interleukin-6 (IL-6), Tumor Necrosis Factor Receptor Type 1 (TNFR1), Matrix Metalloproteinase-1 (MMP-1), Matrix Metalloproteinase-3 (MMP-3), YKL-40, Leptin, Resistin, Serum Amyloid A (SAA), and C-Reactive Protein (CRP). The twelve biomarkers in VECTRA® DA test are relevant to key aspects of the pathophysiology of RA. Li et al., Curr. Med. Res. & Opin. 29(1): 85-92 (2013). The test measures the concentrations of the biomarkers and provides the concentrations and percentile (RA percentile) value for each biomarker.
The VECTRA DA MBDA test uses Meso Scale Discovery (MSD, Gaithersburg, Md., USA) sandwich immunoassay electrochemiluminescent technology to measure biomarker levels. Eastman et al., J. of Pharmaceutical and Biomedical Analysis 70: 415-424 (2012). In the immunoassay, capture antibodies are spotted on carbon electrodes in a planar array and detection antibodies are labeled with an electrochemiluminescent ruthenium reporter. Id. Upon electrical stimulation, light is produced from reporter molecules bound to the electrode to determine biomarker concentration.

[14] = system: CRP; details: literature 1990-2012, ACR abstracts 2006-2013; cited from earlier work
[15] = system: Leptin; details: literature; Leptin usable as biomarker only in patients with 15% or less body fat; cited from earlier work
[16] = system: MMP-3; details: literature 1990-2012, ACR abstracts 2006-2013; cited from earlier work
[17] = Patient 10, MTX (November 2011) and ORENCIA (August-December 2012) not algorithm-selected, HUMIRA December 2012-June 2013, based on VECTRA DA Score
[18] = Patient 9, ACTEMRA from May 2012 not algorithm-selected, MTX added October 2012, based on ESR and CRP level

In the case of Adalimumab [HUMIRA (TNF)], the “Treatment Outcome” value [1, 17] is reported as “Effective,” and the “VECTRA DA Score - Decreased by” value ([2]; Patient 10, treatment December 2012-June 2013, score May 2013) is reported as “Decreased by 22”.

For Tocilizumab [TOCL], the “Treatment Outcome” value ([3]; Patient 6) was “Effective, based”, the “Conventional markers of inflammation - ESR and CRP level” value ([3]; Patient 6, while on ACTEMRA) was “normalized” and the Adverse reaction ([3]; in vivo) was “allergic reaction”. The “Toxicity for which the treatment was excluded” value ([3]; in vivo) was “bone marrow”, the “MMP-1 positively affected by treatment method” value [4] was “Y” and the “Arthritis activity class of VECTRA DA Score” value (shortened to “Arthritis activity class”) ([5]; Patient 6, February 2013) was “high (a VECTRA DA Score of >44 reflects high disease activity)”. For the same molecule, the “Arthritis activity class” value ([5]; Patient 6, October 2012) was “high (a VECTRA DA Score of >44 reflects high disease activity)”, the “VECTRA DA Score” value ([5]; Patient 6, October 2012, ACTEMRA 4 mg/kg) was 54 and the “TNFR1 positively affected by treatment method” value [6] was “N”. The “VCAM-1 positively affected by treatment method” value [7] was “N”, the “VEGF-A positively affected by treatment method” value [8] was “Y” and the “Treatment Outcome” value [1, 18] was “Not effective”. The “IL-6 positively affected by treatment method” value [9] was “Y”, the “SAA positively affected by treatment method” value [10] was “Y” and the “YKL-40 positively affected by treatment method” value [11] was “Y”. For the same molecule, the “Resistin positively affected by treatment method” value [12] was “N”, the IL-6 elevated level ([13]; Patient 6, February 2013) was >99% and the MMP-3 elevated level ([13]; Patient 6, February 2013) was 61%. For the same molecule, the Resistin elevated level ([13]; Patient 6, February 2013) was 70%, the IL-6 elevated level ([13]; Patient 6, October 2012) was >99% and the MMP-3 elevated level ([13]; Patient 6, October 2012) was 88%. For the same molecule, the Resistin elevated level ([13]; Patient 6, October 2012) was 57%, the TNF-R1 elevated level ([13]; Patient 6, October 2012) was 45% and the “CRP positively affected by treatment method” value [14] was “Y”. The “VECTRA DA Score - Decreased by” value ([2]; Patient 6, treatment August 2012-June 2013, score February 2013) was “Decreased by 24”, the “Leptin positively affected by treatment method” value [15] was “N” and the “MMP-3 positively affected by treatment method” value [16] was “Y”.

In the case of `CN(Cc1cnc2nc(N)nc(N)c2n1)c1ccc(C(=O)N[C@@H](CCC(=O)O)C(=O)O)cc1` [MTX, Methotrexate], the “Adverse event for which dose was reduced to 10 mg/week” value ([3]; human, in vivo) is listed as “hair loss, April 2014”, the “Treatment effectiveness (reason for discontinuation / earlier trial)” value ([3]; patient 16, January 2014) is listed as “without success” and the “MMP-1 positively affected by treatment method” value [4] is listed as “N”. For the same molecule, the “Arthritis activity class” value ([5]; Patient 5, August 2012) was “high (a VECTRA DA Score of >44 reflects high disease activity)”, the “VECTRA DA Score increased by” value ([5]; Patient 5, August 2012 since March 2012 (5 months treatment only)) was “by 7 since” and the “Arthritis activity class” value ([5]; Patient 10, April 2012) was “(moderate) (a VECTRA DA Score of >29 and ≦44 reflects moderate disease activity)”. For the same molecule, the “VECTRA DA Score” value ([5]; Patient 10, April 2012, Methotrexate 10 mg/week) was “Score: 33”, the “TNFR1 positively affected by treatment method” value [6] was “N” and the “VCAM-1 positively affected by treatment method” value [7] was “N”. The “VEGF-A positively affected by treatment method” value [8] was “Y”, the “Treatment Outcome” value ([1]; Patient 5, MTX alone from March 2012 not algorithm-selected, MTX and CIMZIA October 2012-June 2013, based on Sedimentation Rate and CRP Level) was “Not effective” and the “Treatment Outcome” value ([1]; Patient 8, MTX not algorithm-selected, ORENCIA December 2012-June 2013, based on VECTRA DA score) was “Not effective”. The “Treatment Outcome” value [1, 18] was “Effective,”, the “Treatment Outcome” value [1, 17] was “Not effective” and the “IL-6 positively affected by treatment method” value [9] was “Y”. The “SAA positively affected by treatment method” value [10] was “Y”, the “YKL-40 positively affected by treatment method” value [11] was “N” and the “Resistin positively affected by treatment method” value [12] was “N”. It also gave a CRP elevated level ([13]; Patient 5, August 2012) of 67%, an IL-6 elevated level ([13]; Patient 5, August 2012) of 79% and a Leptin elevated level ([13]; Patient 5, August 2012) of 97%. It also gave an MMP-1 elevated level ([13]; Patient 5, August 2012) of 79%, an MMP-3 elevated level ([13]; Patient 5, August 2012) of 95% and a Resistin elevated level ([13]; Patient 5, August 2012) of 82%. For the same molecule, the SAA elevated level ([13]; Patient 5, August 2012) was 92%, the TNF-R1 elevated level ([13]; Patient 5, August 2012) was 79% and the VCAM-1 elevated level ([13]; Patient 5, August 2012) was 97%. It also gave a VEGF-A elevated level ([13]; Patient 5, August 2012) of 48%, a YKL-40 elevated level ([13]; Patient 5, August 2012) of 94% and an SAA elevated level ([13]; Patient 10, April 2012) of 65%. The VEGF-A elevated level ([13]; Patient 10, April 2012) was 59%, the YKL-40 elevated level ([13]; Patient 10, April 2012) was 72% and the “CRP positively affected by treatment method” value [14] was “Y”. For the same molecule, the “Leptin positively affected by treatment method” value [15] was “N” and the “MMP-3 positively affected by treatment method” value [16] was “Y”.

Source: patent US9387246B2, “Treatment methods for rheumatoid arthritis” (priority 2013, dated 2016)
